{
  "source": "paper PMC6694155",
  "about": "“PTPσ inhibitors promote hematopoietic stem cell regeneration” (Nature Communications, 2019)",
  "key": {"[1]": {"molecular_target": "T1, CD45 (Protein Tyrosine Phosphatase, receptor type C) (Homo sapiens, UniProt P08575)", "T1 construct": "purchased Eurofins Pharma Discovery Services UK", "T1 sequence (P08575 26-1306, species assumed)": "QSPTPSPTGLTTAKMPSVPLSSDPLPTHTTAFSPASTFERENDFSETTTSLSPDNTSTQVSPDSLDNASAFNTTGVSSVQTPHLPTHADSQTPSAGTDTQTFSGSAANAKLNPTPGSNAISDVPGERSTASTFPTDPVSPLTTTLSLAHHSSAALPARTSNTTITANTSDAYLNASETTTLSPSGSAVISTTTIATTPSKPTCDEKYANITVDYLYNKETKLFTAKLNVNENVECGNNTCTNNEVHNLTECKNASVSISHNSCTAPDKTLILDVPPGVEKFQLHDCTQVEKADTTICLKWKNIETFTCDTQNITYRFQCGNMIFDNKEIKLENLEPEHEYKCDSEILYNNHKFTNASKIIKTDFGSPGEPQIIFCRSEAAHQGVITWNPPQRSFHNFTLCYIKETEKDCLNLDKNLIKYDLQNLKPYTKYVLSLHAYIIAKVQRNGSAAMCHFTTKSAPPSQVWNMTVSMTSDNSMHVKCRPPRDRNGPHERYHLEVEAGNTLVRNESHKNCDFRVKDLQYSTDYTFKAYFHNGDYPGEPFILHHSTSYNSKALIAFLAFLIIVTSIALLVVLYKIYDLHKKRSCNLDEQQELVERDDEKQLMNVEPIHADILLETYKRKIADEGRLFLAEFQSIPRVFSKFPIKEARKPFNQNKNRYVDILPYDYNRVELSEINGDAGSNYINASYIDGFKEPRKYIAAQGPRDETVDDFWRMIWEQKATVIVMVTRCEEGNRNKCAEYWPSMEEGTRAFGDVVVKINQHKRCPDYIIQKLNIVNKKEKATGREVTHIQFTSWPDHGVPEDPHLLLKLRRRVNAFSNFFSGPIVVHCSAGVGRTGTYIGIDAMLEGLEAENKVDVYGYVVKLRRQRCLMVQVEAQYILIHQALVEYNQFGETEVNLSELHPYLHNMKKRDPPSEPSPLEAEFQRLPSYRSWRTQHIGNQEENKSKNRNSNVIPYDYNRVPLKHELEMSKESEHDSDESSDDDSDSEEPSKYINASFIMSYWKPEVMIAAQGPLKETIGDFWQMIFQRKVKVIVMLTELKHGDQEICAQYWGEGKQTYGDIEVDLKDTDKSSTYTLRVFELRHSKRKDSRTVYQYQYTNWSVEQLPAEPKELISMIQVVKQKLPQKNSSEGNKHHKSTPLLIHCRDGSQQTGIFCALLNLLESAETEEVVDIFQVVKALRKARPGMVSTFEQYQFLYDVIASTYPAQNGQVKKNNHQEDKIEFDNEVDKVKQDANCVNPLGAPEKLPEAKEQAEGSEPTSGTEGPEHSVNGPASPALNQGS", "experiment": "PhosphataseProfiler screen: CD45", "assay_type": "biochemical", "settings": "replicates", "procedure": "(§1) Compound DJ001 was evaluated in a PhosphataseProfiler™ screen at 10 μM and 1 μM (2.7 μg/mL and 0.27 μg/mL) concentrations at Eurofins Pharma Discovery Services UK (Study number UK022-0004033) against a panel of 21 Phosphatases. In each experiment, the respective reference antagonist/agonist was tested directly with DJ001 and the data were compared with historical values determined at Eurofins. DJ001 compound inhibition was calculated as percentage inhibition of the enzymatic activity compared with control."}, "[2]": {"molecular_target": "T2, PTPMEG2 (Protein Tyrosine Phosphatase Non-Receptor Type 9) (Homo sapiens, UniProt P43378)", "T2 construct": "purchased Eurofins Pharma Discovery Services UK", "T2 sequence (P43378 whole entry)": "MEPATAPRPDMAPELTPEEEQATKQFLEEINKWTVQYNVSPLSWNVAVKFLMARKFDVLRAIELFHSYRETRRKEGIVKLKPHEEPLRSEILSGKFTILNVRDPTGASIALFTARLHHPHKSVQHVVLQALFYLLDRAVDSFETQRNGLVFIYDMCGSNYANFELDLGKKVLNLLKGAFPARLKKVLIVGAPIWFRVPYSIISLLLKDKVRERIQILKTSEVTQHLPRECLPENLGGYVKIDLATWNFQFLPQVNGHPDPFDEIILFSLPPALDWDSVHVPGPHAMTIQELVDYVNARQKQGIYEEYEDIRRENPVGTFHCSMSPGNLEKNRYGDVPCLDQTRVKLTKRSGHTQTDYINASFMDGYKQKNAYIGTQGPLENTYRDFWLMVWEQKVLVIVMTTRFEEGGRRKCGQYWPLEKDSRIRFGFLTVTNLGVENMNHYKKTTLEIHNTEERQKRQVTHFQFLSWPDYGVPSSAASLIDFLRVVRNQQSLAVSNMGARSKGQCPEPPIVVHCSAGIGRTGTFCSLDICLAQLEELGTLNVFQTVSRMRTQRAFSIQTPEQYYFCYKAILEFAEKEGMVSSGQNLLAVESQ", "experiment": "PhosphataseProfiler screen: PTPMEG2", "assay_type": "biochemical", "settings": "replicates", "procedure": "as §1"}, "[3]": {"molecular_target": "T3, PTP1B (Protein Tyrosine Phosphatase 1B) (Homo sapiens, UniProt P18031)", "T3 construct": "purchased Eurofins Pharma Discovery Services UK", "T3 sequence (P18031 whole entry, species assumed)": "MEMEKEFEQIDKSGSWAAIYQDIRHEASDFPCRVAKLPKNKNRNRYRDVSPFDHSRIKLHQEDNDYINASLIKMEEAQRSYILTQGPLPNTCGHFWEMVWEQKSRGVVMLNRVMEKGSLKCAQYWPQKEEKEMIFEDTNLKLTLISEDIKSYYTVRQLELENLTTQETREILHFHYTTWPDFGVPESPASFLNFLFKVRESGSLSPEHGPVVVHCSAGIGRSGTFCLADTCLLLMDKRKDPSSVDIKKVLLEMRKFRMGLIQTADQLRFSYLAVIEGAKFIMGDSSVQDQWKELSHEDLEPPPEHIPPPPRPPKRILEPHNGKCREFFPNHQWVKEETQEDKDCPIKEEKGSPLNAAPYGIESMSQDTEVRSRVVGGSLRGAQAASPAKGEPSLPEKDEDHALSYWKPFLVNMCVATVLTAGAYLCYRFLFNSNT", "experiment": "PhosphataseProfiler screen: PTP1B", "assay_type": "biochemical", "settings": "replicates", "procedure": "as §1"}, "[4]": {"molecular_target": "T4, TMDP (Dual Specificity Phosphatase 13) (Homo sapiens, UniProt Q9UII6)", "T4 construct": "purchased Eurofins Pharma Discovery Services UK", "T4 sequence (Q9UII6 whole entry, species assumed)": "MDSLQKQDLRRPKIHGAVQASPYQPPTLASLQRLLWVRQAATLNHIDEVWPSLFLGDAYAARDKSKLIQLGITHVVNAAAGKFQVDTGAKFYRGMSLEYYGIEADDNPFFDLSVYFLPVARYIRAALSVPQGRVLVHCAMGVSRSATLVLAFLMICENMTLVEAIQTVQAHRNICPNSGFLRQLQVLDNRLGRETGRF", "experiment": "PhosphataseProfiler screen: TMDP", "assay_type": "biochemical", "settings": "replicates", "procedure": "as §1"}, "BM CD34−KSL HSCs": {"tested_on": "BM CD34−KSL HSCs", "experiment": "7 day culture of non-irradiated BM CD34−KSL cells in TSF media", "assay_type": "cell-based, mouse", "settings": "for Supplementary Figure 3a (center panel): 7 day culture of BM CD34−KSL cells / Supplementary Figure 3a (left panel): 7 day culture of BM CD34−KSL cells / Supplementary Figure 3a (right panel): 7 day culture of BM CD34−KSL cells: replicates", "from_the_text": "BM cells were first treated with ACK lysis buffer (Sigma Aldrich) and lineage-committed cells were removed using a Direct Lineage Cell Depletion Kit (Miltenyi Biotec, #130-110-470, 1:5). Lin^− cells were stained with APC-Cy7-conjugated anti-mouse Sca1 (BD Biosciences, #560654, 1:100), PE-conjugated anti-ckit (BD Biosciences, #553355, 1:100), V450 lineage cocktail (BD Biosciences, #561301, 1:10), and FITC-conjugated anti-CD34 (BD Biosciences, #553733, 1:100) antibodies. Sterile cell sorting was conducted on a BD FACS-Aria cytometer. Purified KSL cells and CD34^−c-kit^+sca-1^+Lin^− (CD34^−KSL) cells were collected into IMDM (Life Technologies) + 10% FBS + 1% penicillin–streptomycin.\n(§2) CFC assays (colony-forming unit-granulocyte monocyte), burst-forming unit-erythroid, and CFU-GEMM were performed using MethoCult GF M3434 (Stemcell Technologies)[6]. For all in vitro assays, BM CD34^−KSL cells, KSL cells, and Lin^− cells were cultured in TSF media (IMDM, 10% FBS, 1% pen-strep, 20 ng/mL recombinant mouse TPO, 125 ng/mL recombinant mouse SCF, 50 ng/mL recombinant mouse Flt3 ligand). Recombinant mouse SCF, Flt3 ligand, and TPO were purchased from R&D Systems. For competitive repopulation assays, BM cells were isolated from donor 10–12-week-old female CD45.2^+ mice. Recipient 10-week-old female CD45.1^+ B6.SJL mice were irradiated with 950 cGy TBI using a Cs137 irradiator and donor BM cells were administered via tail vein injection along with a competing dose of 1 × 10^5 non-irradiated host BM cells. Multilineage donor hematopoietic cell engraftment was measured in the PB by flow cytometry."}, "BM KSL cells": {"tested_on": "BM KSL cells", "experiment": "CFC assay after lentiviral shRac1 or shBcl2l1 silencing and 300 cGy", "assay_type": "cell-based, mouse", "settings": "for Figure 3i: BFU-E / Figure 3i: CFU-GM / Figure 3i: GEMM: 300 cGy, replicates", "procedure": "Rac1 CDS-targeting- and Bcl2l1 CDS-targeting shRNA in lentiviral plasmid (TRCN0000310888 and TRCN0000004685) and control shRNA (SHC216V) were purchased from Sigma Aldrich. […]. Viral particles were collected after 24 h and 48 h. […] Infected cells were collected the next day and irradiated with 300 cGy followed by treatment with or without 1 μg/mL DJ001, prior to CFC assay.\nas §2"}, "human CD34+CD38− cells": {"tested_on": "human CD34+CD38− cells", "experiment": "BCL2L1 and MCL-1 gene expression in irradiated human CD34+CD38− cells (qPCR)", "assay_type": "cell-based", "from_the_text": "For all studies, RNA was isolated using the Qiagen RNeasy micro kit (Qiagen). RNA was reverse transcribed using the High-Capacity cDNA Reverse Transcription Kit (ThermoFisher Scientific) and was then used for quantitative PCR with SYBR Select Master Mix (Life Technologies). Values were normalized to housekeeping gene Gapdh/GAPDH and given as ΔΔCt values normalized to media-treated, non-irradiated BM KSL cells (2(−ΔΔC(T)) method)[67]."}, "[5]": {"settings": "irradiated human CD34+CD38− cells, qPCR, replicates"}},
  "note": "Several values for one entry are separate records, joined by “and”; a condition that tells them apart may be missing. Equal values may be shown once.",
  "data": [
    {"smiles": "O=C(/C=C\\Nc1cccc([N+](=O)[O-])c1)c1ccccc1", "note": "[DJ001, (Z)-3-((3-nitrophenyl)amino)-1-phenylprop-2-en-1-one]", "values": [
      {"measurement": "Supplementary Figure 1: CD45 activity", "setting": "[1]; 0.27 μg/mL DJ001", "result": "91 and 86 and 84"},
      {"measurement": "Supplementary Figure 1: CD45 activity", "setting": "[1]; 2.7 μg/mL DJ001", "result": "71 and 85 and 86"},
      {"measurement": "Supplementary Figure 1: PTP MEG2 activity", "setting": "[2]; 0.27 μg/mL DJ001", "result": "94 (2×) and 103"},
      {"measurement": "Supplementary Figure 1: PTP MEG2 activity", "setting": "[2]; 2.7 μg/mL DJ001", "result": "91 and 71 and 95"},
      {"measurement": "Supplementary Figure 1: PTP1B activity", "setting": "[3]; 0.27 μg/mL DJ001", "result": "97 and 90 and 91"},
      {"measurement": "Supplementary Figure 1: PTP1B activity", "setting": "[3]; 2.7 μg/mL DJ001", "result": "96 and 86 and 90"},
      {"measurement": "Supplementary Figure 1: TMDP activity", "setting": "[4]; 2.7 μg/mL DJ001", "result": 101},
      {"measurement": "Supplementary Figure 1: TMDP activity", "setting": "[4]; 0.27 g/mL DJ001", "result": "108 and 103 (2×)"},
      {"measurement": "Supplementary Figure 3a (center panel): 7 day culture of BM CD34−KSL cells", "setting": "BM CD34−KSL HSCs; 10 ng/mL", "result": "8.03 and 6.26 and 7.07 and 7.49"},
      {"measurement": "Supplementary Figure 3a (left panel): 7 day culture of BM CD34−KSL cells", "setting": "BM CD34−KSL HSCs; 10 ng/mL", "result": "107000 and 154000 and 141000 and 135000"},
      {"measurement": "Supplementary Figure 3a (right panel): 7 day culture of BM CD34−KSL cells", "setting": "BM CD34−KSL HSCs; 10 ng/mL", "result": "8589 and 9633 and 9964 and 10109"},
      {"measurement": "Supplementary Figure 3a (center panel): 7 day culture of BM CD34−KSL cells", "setting": "BM CD34−KSL HSCs; 100 ng/mL", "result": "15.07 and 8.84 and 9.18 and 11.37"},
      {"measurement": "Supplementary Figure 3a (left panel): 7 day culture of BM CD34−KSL cells", "setting": "BM CD34−KSL HSCs; 100 ng/mL", "result": "127000 and 142000 and 174000 and 219000"},
      {"measurement": "Supplementary Figure 3a (right panel): 7 day culture of BM CD34−KSL cells", "setting": "BM CD34−KSL HSCs; 100 ng/mL", "result": "19062 and 12549 and 15920 and 24836"},
      {"measurement": "Supplementary Figure 3a (center panel): 7 day culture of BM CD34−KSL cells", "setting": "BM CD34−KSL HSCs; 1000 ng/mL", "result": "16.07 and 11.49 and 11 and 12.87"},
      {"measurement": "Supplementary Figure 3a (left panel): 7 day culture of BM CD34−KSL cells", "setting": "BM CD34−KSL HSCs; 1000 ng/mL", "result": "131000 and 209000 and 128000 and 136000"},
      {"measurement": "Supplementary Figure 3a (right panel): 7 day culture of BM CD34−KSL cells", "setting": "BM CD34−KSL HSCs; 1000 ng/mL", "result": "21058 and 24017 and 14076 and 17507"},
      {"measurement": "percentages and numbers of BM KSL cells in culture vs control", "setting": "BM CD34−KSL HSCs; 10–1,000 ng/mL DJ001, 7 days", "result": "increased the percentages and numbers of BM KSL cells"},
      {"measurement": "DJ001-mediated recovery of hematopoietic progenitor cells with silencing of Rac1 or Bcl2l1", "setting": "BM KSL cells; BM KSL cells, 48 h following 300 cGy", "result": "blocked DJ001-mediated recovery of hematopoietic progenitor cells"},
      {"measurement": "Figure 3i: BFU-E", "setting": "BM KSL cells; shBcl-xL", "result": 1},
      {"measurement": "Figure 3i: CFU-GM", "setting": "BM KSL cells; shBcl-xL", "result": "9 and 11 and 10"},
      {"measurement": "Figure 3i: GEMM", "setting": "BM KSL cells; shBcl-xL", "result": "2 and 1 (2×)"},
      {"measurement": "Figure 3i: BFU-E", "setting": "BM KSL cells; shCtrl", "result": "2 and 3 (4×) and 4 (2×) and 5 (2×)"},
      {"measurement": "Figure 3i: CFU-GM", "setting": "BM KSL cells; shCtrl", "result": "26 (3×) and 30 and 29 (2×) and 20 and 31 and 28"},
      {"measurement": "Figure 3i: GEMM", "setting": "BM KSL cells; shCtrl", "result": "5 (3×) and 13 and 8 (2×) and 7 and 10 and 9"},
      {"measurement": "Figure 3i: BFU-E", "setting": "BM KSL cells; shRac1", "result": "1 (2×) and 0"},
      {"measurement": "Figure 3i: CFU-GM", "setting": "BM KSL cells; shRac1", "result": "12 and 10 (2×)"},
      {"measurement": "Figure 3i: GEMM", "setting": "BM KSL cells; shRac1", "result": "2 and 0 and 3"},
      {"measurement": "expression of BCL2L1 and MCL-1", "setting": "human CD34+CD38− cells; irradiated human CD34+ cells, 12 h after 300 cGy", "result": "increased the expression"},
      {"measurement": "Figure 5d: gene expression, BCL-XL", "setting": "human CD34+CD38− cells; [5]", "result": "7.91 and 7.15 and 7.38"},
      {"measurement": "Figure 5d: gene expression, MCL1", "setting": "human CD34+CD38− cells; [5]", "result": "3.75 and 3.41 and 4.98"}
    ]}
  ]
}
